According to patent US8450522B2, “Conformationally constrained carboxylic acid derivatives useful for treating metabolic disorders” (Amgen Inc., priority 2008, dated 2013):

Assays:
GPR40 [1] = target: T1, GPR40 (Homo sapiens, UniProt O14842); assay: Cell-based aequorin assay (CHO cells stably transfected with GPR40 and aequorin); design: expressed in transfected cells; conditions: activation of human GPR40, CHO cells, 0.01% HSA
Experimental: Briefly, the Aequorin assays were performed on doubly stable CHO cells expressing GPR40 and Aequorin DNA. […] The luminescence was recorded over a period of 20 seconds with a Microlumat luminometer (Berthold).
Cell-based aequorin assays were employed to characterize the modulatory activity of compounds on the GPR40 signaling pathway. In an exemplary assay, CHO cells were stably transfected with both GPR40 and Aequorin (Euroscreen). Cells were detached from the tissue culture dish with 2 mL of trypsin (0.25% (w/v)). Trypsinization was halted with 28 mL of Hanks Buffered Salt Solution containing 20 mM Hepes (H/HBSS) and 0.01% fatty acid-free human serum albumin (HSA). Coelantrazine is added to 1 ug/mL, and the cells were incubated for 2 hours at room temperature. Compounds were dissolved in DMSO for preparation of 10 mM stock solutions. Compounds were diluted in H/HBSS containing 0.01% HSA. Serial dilutions of the test compounds were prepared to determine dose response.
Aequorin luminescence measurements were made using an EG&G Berthold 96-well luminometer, and the response was measured over a 20 second interval after cells and compounds were mixed. The maximum relative light units was plotted to determine dose response. The EC50 (effective concentration to reach 50% maximal response) was determined from the dose response plot.

GPR40 [2] = target: T1, GPR40; assay: Inositol phosphate accumulation assay (A9 cell line stably transfected with GPR40); type: cell-based; design: expressed in transfected cells; conditions: human GPR40, A9_GPR40 cells, 1 hour at 37° C.; read-out: IP3 EC50 (inositol phosphate assay data)
Experimental: An A9 cell line stably transfected with GPR40 (A9_GPR40) was used in IP accumulation assays. A9_GPR40 cells were plated in 96-well plates containing 20,000 cells/well in DMEM containing 10% FBS. After the cells attached to the well surface, the media was replaced with inositol free DMEM containing 10% dialyzed FBS and 1 μCi, mL ^3H-inositol and incubated for 16 hours. Compounds were diluted in HBSS/10 mM LiCl containing a desired amount of HSA and added directly to cells. Following 1 hour incubation at 37° C., the media was replaced with 100 μl of 20 mM formic acid to quench the reaction. 50 μL of the extract was then added to 100 μL of SPA beads, incubated overnight, and measured on a TopCount the following day.

T1 sequence (O14842 whole entry): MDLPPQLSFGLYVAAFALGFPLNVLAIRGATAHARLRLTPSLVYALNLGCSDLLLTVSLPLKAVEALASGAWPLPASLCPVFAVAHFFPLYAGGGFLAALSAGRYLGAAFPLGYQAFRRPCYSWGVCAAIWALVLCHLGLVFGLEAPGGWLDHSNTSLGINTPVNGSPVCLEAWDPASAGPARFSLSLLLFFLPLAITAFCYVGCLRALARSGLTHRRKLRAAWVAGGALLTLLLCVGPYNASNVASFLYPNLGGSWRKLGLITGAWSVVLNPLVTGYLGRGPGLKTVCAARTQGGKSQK

SMILES | EC50 (GPR40 [1]) [µM] | EC50 (GPR40 [2]) [µM]
CC[C@]1(CC(=O)O)CCc2ccc(OCc3ccc(-c4cc(OC)ccc4F)c([C@@H](OC)C(C)(C)C)c3)cc21 (single isomer, unassigned) [Example 44] | 0.1 to 1 | 0.01 to 0.1
COc1ccc(F)c(-c2ccc(COc3ccc4c(c3)[C@@H](C(C)C(=O)O)CC4)cc2C(C)(C)C)c1 (single isomer, unassigned) [Example 7, (S)-2-(6-(3-t-Butyl-4-(2-fluoro-5-methoxyphenyl)benzyloxy)-2,3-dihydro-1H-inden-1-yl)propanoic acid or (R)-2-(6-(3-t-butyl-4-(2-fluoro-5-methoxyphenyl)benzyloxy)-2,3-dihydro-1H-inden-1-yl)propanoic acid] | 0.1 to 1 | 0.1 to 1
CCCCOc1cc(COc2ccc3c(c2)[C@@H](CC(=O)O)CC3)ccc1-c1cc(OC)ccc1F (single isomer, unassigned) [Example 17, ((1R)-6-(((2-(butyloxy)-2′-fluoro-5′-(methyloxy)-1,1′-biphenyl-4-yl)methyl)oxy)-2,3-dihydro-1H-inden-1-yl)acetic acid or ((1S)-6-(((2-(butyloxy)-2′-fluoro-5′-(methyloxy)-1,1′-biphenyl-4-yl)methyl)oxy)-2,3-dihydro-1H-inden-1-yl)acetic acid] | 0.1 to 1 | 1 to 10
COc1cc(-c2ccc(COc3ccc4c(c3F)[C@@](C)(CC(=O)O)CC4)cc2[C@H]2CCCC2(C)C)c(F)cn1 (single isomer, unassigned) [Example 38, {(R)-6-[3-((S)-2,2-Dimethyl-cyclopentyl)-4-(5-fluoro-2-methoxy-pyridin-4-yl)-benzyloxy]-7-fluoro-1-methyl-indan-1-yl}-acetic acid or stereoisomer thereof] | 0.1 to 1 | 0.01 to 0.1

More lines, now with the values ahead:

EC50 (GPR40 [1]) [µM] | EC50 (GPR40 [2]) [µM] | SMILES
0.1 to 1 | 0.01 to 0.1 | COc1ccc(F)c(-c2ccc(COc3ccc4c(c3)[C@@H](CC(=O)O)CC4)cc2[C@@H](OC)C(C)(C)C)c1 (single isomer, unassigned) [Example 24]
0.1 to 1 | < 0.01 | COc1ccc(F)c(-c2c(F)cc(COc3ccc4c(c3)[C@@](C)(CC(=O)O)CC4)cc2[C@H]2CCCC2(C)C)c1 (single isomer, unassigned) [Example 35, ((1R)-6-((2-((1S)-2,2-Dimethylcyclopentyl)-2′,6-difluoro-5′-methoxy-4-biphenylyl)methoxy)-1-methyl-2,3-dihydro-1H-inden-1-yl)acetic acid or ((1R)-6-((2-((1R)-2,2-dimethylcyclopentyl)-2′,6-difluoro-5′-methoxy-4-biphenylyl)methoxy)-1-methyl-2,3-dihydro-1H-inden-1-yl)acetic acid]
0.1 to 1 | < 0.01 | COc1ccc(F)c(-c2ccc(COc3ccc4c(c3)[C@@](C)(CC(=O)O)CC4)cc2[C@@H](OC)C(C)(C)C)c1 (single isomer, unassigned) [Example 36, ((1R)-6-((2′-Fluoro-5′-methoxy-2-((1S)-1-methoxy-2,2-dimethylpropyl)-4-biphenylyl)methoxy)-1-methyl-2,3-dihydro-1H-inden-1-yl)acetic acid or ((1R)-6-((2′-fluoro-5′-methoxy-2-((1R)-1-methoxy-2,2-dimethylpropyl)-4-biphenylyl)methoxy)-1-methyl-2,3-dihydro-1H-inden-1-yl)acetic acid]
0.1 to 1 | 0.01 to 0.1 | COc1cc(-c2ccc(COc3ccc4c(c3)[C@@H](CC(=O)O)CC4)cc2[C@H]2CCCC2(C)C)c(F)cn1 (single isomer, unassigned) [Example 23]
0.1 to 1 | 0.01 to 0.1 | CC[C@]1(CC(=O)O)CCc2ccc(OCc3ccc(-c4cc(OC)ncc4F)c([C@H]4CCCC4(C)C)c3)cc21 (single isomer, unassigned) [Example 43]
1 to 10 | – | COc1cccc(-c2ccc(COc3ccc4c(c3)[C@@H]([C@@H](C)C(=O)O)CC4)cc2C(C)(C)C)c1 (single isomer, unassigned) [Example 26, 2-((1R)-6-(((2-(1,1-dimethylethyl)-3′-(methyloxy)-1,1′-biphenyl-4-yl)methyl)-oxy)-2,3-dihydro-1H-inden-1-yl)propanoic acid or stereoisomer thereof]
